Target: T1, carboxyl-terminal ALDH domain of rat ALDH1L1 (Rattus norvegicus, UniProt P28037)
T1 construct: The carboxyl terminal ALDH domain of rat ALDH1L1 was generously provided by Sergey Krupenko in the pRSET expression plasmid; inferred from nickel-NTA purification and the pRSET plasmid; made in house; host or cells: bacterial host inferred from the pRSET plasmid and ampicillin medium
T1 sequence (P28037 417-902 limits assumed): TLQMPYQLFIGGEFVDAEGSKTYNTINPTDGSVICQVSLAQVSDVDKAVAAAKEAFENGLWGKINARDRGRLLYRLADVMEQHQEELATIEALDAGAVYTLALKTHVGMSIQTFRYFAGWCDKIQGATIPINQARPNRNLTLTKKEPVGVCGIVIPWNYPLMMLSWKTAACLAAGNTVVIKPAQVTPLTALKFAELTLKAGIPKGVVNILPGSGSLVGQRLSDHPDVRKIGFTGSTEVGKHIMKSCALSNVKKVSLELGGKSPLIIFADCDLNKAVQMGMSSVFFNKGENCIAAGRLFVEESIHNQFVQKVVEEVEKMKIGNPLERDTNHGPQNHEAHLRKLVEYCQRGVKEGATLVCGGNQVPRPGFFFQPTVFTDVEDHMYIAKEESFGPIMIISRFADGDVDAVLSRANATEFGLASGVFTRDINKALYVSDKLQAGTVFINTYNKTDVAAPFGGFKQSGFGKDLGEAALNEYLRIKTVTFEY
Experiment: ALDH1L1 selectivity assay
Assay type: biochemical
Conditions: 20 μM compound
Excerpt: ALDH1A1, ALDH1A2, ALDH1A3, ALDH1B1, ALDH2, and ALDH3A1 were produced and purified as previously described. The ALDH1A1 protein used for the ALDH1A1-CM026 crystal contained an Asn-to-Ser SNP at residue 121. Unless where noted otherwise, ALDH1A1 WT protein was used for all aldehyde oxidation assays and for the ALDH1A1-CM053 structure. The full length cDNA for human ALDH4A1 and ALDH5A1 were generously provided by Dania Mochly-Rosen. ALDH4A1 was subcloned into the pET-28a expression plasmid and ALDH5A1 was in pTrcHis-Topo. The carboxyl terminal ALDH domain of rat ALDH1L1 was generously provided by Sergey Krupenko in the pRSET expression plasmid. ALDH1L1, ALDH4A1, and ALDH5A1 were expressed and purified as previously described for ALDH3A1^36 with the following modifications: 1) for ALDH1L1 and ALDH5A1 the medium contained 100 μg/mL ampicillin, 2) cells were lysed via 3 passages through a microfluidizer (DivTech Equipment), and 3) a single passage on a nickel-NTA column was used for purification, without the second Q-sepharose column used to purify ALDH3A1. Purified enzymes used for kinetics were stored at −80° C. ALDH1A1 used for crystallization was stored at −20° C. in a 50% (v/v) solution with glycerol and dialyzed against 10 mM Na^+-ACES pH 6.6 and 1 mM dithiothreitol at 4° C.

## CC(C)CCn1c(CN2CCN(C(=O)c3ccco3)CC2)nc2c1c(=O)n(C)c(=O)n2C [CM026]
  effect on carboxyl-terminal ALDH domain of rat ALDH1L1: no effect

From patent US20150306108A1, “COMPOSITIONS OF ALDH1A1 INHIBITORS AND METHODS OF USE IN TREATING CANCER” (Indiana University Research & Technology Corporation, priority 2014, published 2015)
